Tests used:
BChE = molecular target: T1, BChE (Equus caballus, UniProt P81908); assay: Ellman's assay, BChE inhibition; format: biochemical; settings: for inhibition at 62.5 µg/mL: Conc. 62.5 µg/mL; for inhibition at 125 µg/mL: Conc. 125 µg/mL; for inhibition at 250 µg/mL: Conc. 250 µg/mL; for inhibition at 500 µg/mL: Conc. 500 µg/mL; for inhibition at 1000 µg/mL: Conc. 1000 µg/mL
T1 construct: The enzyme AChE is derived from Electric eel and BChE from equine serum; from tissue; host or cells: equine serum
Experimental: (§1) The enzyme AChE is derived from Electric eel and BChE from equine serum. Buffer of phosphate, 0.1 M at pH 8.0 was prepared to whom varied concentration ([…]–1000 μg/mL) of the respective compound was added. The solution of AChE was diluted to 0.03 U/mL from 518 U/mg, similarly BChE from 7–16 U/mg to 0.01 U/mL at the given pH condition. Distilled water was used as solvent, for preparation of 0.5 mM acetylthiocholine iodide (ATchI), 0.2273 mM 5,5′-dithiobis-2-nitrobenzoic acid (DTNB) and 0.5 mM butyrylthiocholine iodide (BTchI). All solutions were stored at 8 °C in a refrigerator prior to performing the experiment.
(§2) Enzyme solution (5 μL), corresponding compound (205 μL), and DTNB reagent (5 μL) were mixed in a cuvette. The solution was incubated for 15 min at 30 °C followed by addition of 5 μL of the substrate solution. Absorbance of the incubated sample was measured at 412 nm by a double-beam spectrophotometer (Thermo Electron Corporation, USA) for 4 min along with the reaction time at 30 °C. The well-established Galanthamine was used as positive control and all experiments were performed in triplicate. The percent enzyme activity and enzyme inhibition by control and test samples were calculated from the rate of absorption with respect to change in time (V = ΔAbs/Δt) using the same procedure as reported previously.

AChE = molecular target: T2, AChE (Electrophorus electricus, UniProt O42275); assay: biochemical; settings: for inhibition at 62.5 µg/mL: Conc. 62.5 µg/mL; for inhibition at 125 µg/mL: Conc. 125 µg/mL; for inhibition at 250 µg/mL: Conc. 250 µg/mL; for inhibition at 500 µg/mL: Conc. 500 µg/mL; for inhibition at 1000 µg/mL: Conc. 1000 µg/mL
T2 construct: The enzyme AChE is derived from Electric eel and BChE from equine serum; from tissue
Experimental: as §1, §2

mushroom tyrosinase = tested on: mushroom tyrosinase; parameters: method as in PMID 21978680, PMID 28904627; settings: ref [6],[42]; cited from earlier work
melanin B16 cells = tested on: melanin B16 cells; parameters: method as in PMID 21978680, PMID 28904627; settings: ref [6],[42]; read-out: IC50 as melanin B16 inhibitor; cited from earlier work

T1 sequence (P81908 whole entry): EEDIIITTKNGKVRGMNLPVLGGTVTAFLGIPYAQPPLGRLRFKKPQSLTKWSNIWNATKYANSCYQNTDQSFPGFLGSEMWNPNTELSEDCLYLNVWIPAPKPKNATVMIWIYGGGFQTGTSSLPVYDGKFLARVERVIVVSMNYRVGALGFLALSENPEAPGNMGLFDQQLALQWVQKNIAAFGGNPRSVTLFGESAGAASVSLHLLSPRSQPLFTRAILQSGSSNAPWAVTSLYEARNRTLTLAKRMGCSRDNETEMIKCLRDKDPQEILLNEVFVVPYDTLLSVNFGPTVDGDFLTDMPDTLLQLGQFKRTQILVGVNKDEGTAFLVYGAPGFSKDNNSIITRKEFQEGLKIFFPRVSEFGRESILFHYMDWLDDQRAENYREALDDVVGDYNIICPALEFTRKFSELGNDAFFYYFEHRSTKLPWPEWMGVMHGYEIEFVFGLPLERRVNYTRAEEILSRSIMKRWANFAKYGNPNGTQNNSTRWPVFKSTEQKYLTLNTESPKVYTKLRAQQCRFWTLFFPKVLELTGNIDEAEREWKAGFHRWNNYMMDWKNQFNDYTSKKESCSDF
T2 sequence (O42275 24-633): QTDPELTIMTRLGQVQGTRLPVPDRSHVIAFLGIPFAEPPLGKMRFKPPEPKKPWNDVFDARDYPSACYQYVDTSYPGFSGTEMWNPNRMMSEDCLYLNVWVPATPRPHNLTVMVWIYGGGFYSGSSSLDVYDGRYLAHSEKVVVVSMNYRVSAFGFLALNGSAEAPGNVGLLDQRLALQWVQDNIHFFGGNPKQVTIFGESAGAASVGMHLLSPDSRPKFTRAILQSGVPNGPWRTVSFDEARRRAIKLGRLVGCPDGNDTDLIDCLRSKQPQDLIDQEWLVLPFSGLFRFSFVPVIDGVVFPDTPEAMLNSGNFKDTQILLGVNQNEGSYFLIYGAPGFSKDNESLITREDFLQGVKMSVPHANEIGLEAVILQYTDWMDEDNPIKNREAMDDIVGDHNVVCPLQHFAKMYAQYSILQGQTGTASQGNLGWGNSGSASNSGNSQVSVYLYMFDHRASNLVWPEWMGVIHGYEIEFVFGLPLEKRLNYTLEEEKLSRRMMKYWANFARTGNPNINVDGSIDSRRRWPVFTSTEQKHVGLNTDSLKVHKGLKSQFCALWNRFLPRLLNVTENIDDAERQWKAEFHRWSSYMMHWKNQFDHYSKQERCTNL

CC(C)CNC(=S)NC1CCCCC1 [Compound 1, 1-isobutyl-3-cyclohexylthiourea]
IC50 (BChE): 392 µM | inhibition at 62.5 µg/mL (BChE): 46.9 ± 0.42% | inhibition at 125 µg/mL (BChE): 56.4 ± 0.63% | inhibition at 250 µg/mL (BChE): 61 ± 0.33% | inhibition at 500 µg/mL (BChE): 66.2 ± 0.73% | inhibition at 1000 µg/mL (BChE): 74.4 ± 0.68% | IC50 (AChE): 415 µM | inhibition at 62.5 µg/mL (AChE): 46.52 ± 0.38% | inhibition at 125 µg/mL (AChE): 53.64 ± 0.16% | inhibition at 250 µg/mL (AChE): 57.6 ± 1.7% | inhibition at 500 µg/mL (AChE): 63.94 ± 0.45% | inhibition at 1000 µg/mL (AChE): 69.47 ± 0.22%

CC(C)(C)NC(=S)NC1CCCCC1 [Compound 2, 1-tert-butyl-3-cyclohexylthiourea]
IC50 (BChE): 863 µM | inhibition at 62.5 µg/mL (BChE): 41.3 ± 1.01% | inhibition at 125 µg/mL (BChE): 46.7 ± 0.78% | inhibition at 250 µg/mL (BChE): 51.4 ± 1.65% | inhibition at 500 µg/mL (BChE): 57.9 ± 0.97% | inhibition at 1000 µg/mL (BChE): 65.2 ± 0.72% | IC50 (AChE): 1400 µM | inhibition at 62.5 µg/mL (AChE): 38.7 ± 0.68% | inhibition at 125 µg/mL (AChE): 44.7 ± 1.25% | inhibition at 250 µg/mL (AChE): 48 ± 0.75% | inhibition at 500 µg/mL (AChE): 56.3 ± 1.06% | inhibition at 1000 µg/mL (AChE): 63.3 ± 0.98%

S=C(Nc1ccccc1)Nc1ccc(Cl)cc1 [Compound 6, 1-(4-chlorophenyl)-3-phenylthiourea]
potency as mushroom tyrosinase inhibitor (mushroom tyrosinase): moderate potency | IC50 (melanin B16 cells): 3.4 µM | IC50 (BChE): 1010 µM | inhibition at 62.5 µg/mL (BChE): 33 ± 1.15% | inhibition at 125 µg/mL (BChE): 42.7 ± 0.89% | inhibition at 250 µg/mL (BChE): 49 ± 0.58% | inhibition at 500 µg/mL (BChE): 63.03 ± 0.23% | inhibition at 1000 µg/mL (BChE): 71.33 ± 0.49% | IC50 (AChE): 1080 µM | inhibition at 62.5 µg/mL (AChE): 31.9 ± 0.48% | inhibition at 125 µg/mL (AChE): 39 ± 0.48% | inhibition at 250 µg/mL (AChE): 47.9 ± 0.96% | inhibition at 500 µg/mL (AChE): 61.6 ± 1.34% | inhibition at 1000 µg/mL (AChE): 69.6 ± 1.12%

S=C(Nc1ccccc1)Nc1ccccc1Cl [Compound 5, 1-(2-chlorophenyl)-3-phenylthiourea]
IC50 (BChE): 1180 µM | inhibition at 62.5 µg/mL (BChE): 31.7 ± 0.61% | inhibition at 125 µg/mL (BChE): 37.5 ± 0.5% | inhibition at 250 µg/mL (BChE): 44.5 ± 0.64% | inhibition at 500 µg/mL (BChE): 63.86 ± 0.6% | inhibition at 1000 µg/mL (BChE): 71.6 ± 0.74% | IC50 (AChE): 1310 µM | inhibition at 62.5 µg/mL (AChE): 29 ± 0.3% | inhibition at 125 µg/mL (AChE): 35.5 ± 0.5% | inhibition at 250 µg/mL (AChE): 41.7 ± 0.77% | inhibition at 500 µg/mL (AChE): 59.7 ± 0.61% | inhibition at 1000 µg/mL (AChE): 66.79 ± 0.63%

S=C(Nc1cccc(Cl)c1)NC1CCCCC1 [Compound 3, 1-(3-chlorophenyl)-3-cyclohexylthiourea]
IC50 (BChE): 223 µM | inhibition at 62.5 µg/mL (BChE): 49.9 ± 0.65% | inhibition at 125 µg/mL (BChE): 57.2 ± 0.57% | inhibition at 250 µg/mL (BChE): 65.5 ± 1.04% | inhibition at 500 µg/mL (BChE): 71.3 ± 1.11% | inhibition at 1000 µg/mL (BChE): 76.7 ± 0.66% | IC50 (AChE): 186 µM | inhibition at 62.5 µg/mL (AChE): 51.9 ± 1.16% | inhibition at 125 µg/mL (AChE): 57.34 ± 0.55% | inhibition at 250 µg/mL (AChE): 61.36 ± 0.49% | inhibition at 500 µg/mL (AChE): 67.39 ± 0.49%

CCCCN(CCCC)C(=S)Nc1ccccc1 [Compound 4, 1-(1,1-dibutyl)-3-phenylthiourea]
IC50 (BChE): 238 µM | inhibition at 31.5 µg/mL (BChE; Conc. 31.5 µg/mL): 47.3 ± 0.7% | inhibition at 62.5 µg/mL (BChE): 53.5 ± 0.9% | inhibition at 125 µg/mL (BChE): 77.4 ± 1.7% | inhibition at 250 µg/mL (BChE): 89.8 ± 1.5% | inhibition at 500 µg/mL (BChE): 94.4 ± 0.5% | inhibition at 1000 µg/mL (BChE): 98% | IC50 (AChE): 219 µM | inhibition at 31.5 µg/mL (AChE; Conc. 31.5 µg/mL): 39 ± 0.88% | inhibition at 62.5 µg/mL (AChE): 47.9 ± 0.47% | inhibition at 125 µg/mL (AChE): 71.8 ± 1.5% | inhibition at 250 µg/mL (AChE): 77.8 ± 2.26% | inhibition at 500 µg/mL (AChE): 85.4 ± 0.2% | inhibition at 1000 µg/mL (AChE): 93.6 ± 1.12%

Reference: paper PMC8347686, “Thiourea Derivatives, Simple in Structure but Efficient Enzyme Inhibitors and Mercury Sensors” (Molecules, 2021)
